Results on ten compounds are retold here after patent publication US7393853B2, “Use of substituted 8-Perfluoroalkyl-6,7,8,9-tetrahydropyrimido[1,2-a] pyrimidin-4-one derivatives as therapeutic agents” (Sanofi Aventis, priority 2003, dated 2008).

Structures can show the parent of a compound that is named as a salt.

Chain of GSK3β (P49841 whole entry, species assumed): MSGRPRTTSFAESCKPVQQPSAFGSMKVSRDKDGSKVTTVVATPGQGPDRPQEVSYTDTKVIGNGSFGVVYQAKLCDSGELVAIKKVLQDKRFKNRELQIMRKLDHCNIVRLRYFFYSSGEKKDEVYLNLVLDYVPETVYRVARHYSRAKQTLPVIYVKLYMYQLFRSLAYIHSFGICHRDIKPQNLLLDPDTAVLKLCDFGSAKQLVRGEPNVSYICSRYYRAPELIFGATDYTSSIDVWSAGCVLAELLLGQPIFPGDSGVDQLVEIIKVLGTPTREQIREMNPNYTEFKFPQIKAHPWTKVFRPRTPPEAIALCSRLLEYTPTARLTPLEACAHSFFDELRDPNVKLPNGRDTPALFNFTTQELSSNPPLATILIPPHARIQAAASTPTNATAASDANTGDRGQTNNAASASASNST

The target of the first data set is GSK3β (Homo sapiens, UniProt P49841). Kind of data set: Inhibitory activity against GSK3β (33P-ATP phosphorylation of prephosphorylated GS1 peptide, two protocols). The data set is classed as biochemical. The settings on record: protocol (first or second) not specified. As to the method:
Inhibitory Activity of the Medicament of the Present Invention Against GSK3β
Two different protocols can be used.
In a first protocol: 7.5 μM of prephosphorylated GS1 peptide and 10 μM ATP (containing 300,000 cpm of 33P-ATP) were incubated in 25 mM Tris-HCl, pH 7.5, 0.6 mM DTT, 6 mM MgCl2, 0.6 mM EGTA, 0.05 mg/ml BSA buffer for 1 hour at room temperature in the presence of GSK3beta (total reaction volume: 100 microliters).
In a second protocol: 4.1 μM of prephosphorylated GS1 peptide and 42 μM ATP (containing 260,000 cpm 33P-ATP) were incubated in 80 mM Mes-NaOH, pH 6.5, 1 mM Mg acetate, 0.5 mM EGTA, 5 mM 2-mercaptoethanol, 0.02% Tween 20, 10% glycerol buffer for 2 hours at room temperature in the presence of GSK3beta.
Inhibitors were solubilized in DMSO (final solvent concentration in the reaction medium, 1%).
The reaction was stopped with 100 microliters of a solution made of 25 g polyphosphoric acid (85% P2O5), 126 ml 85% H3PO4, H2O to 500 ml and then diluted to 1:100 before use. An aliquot of the reaction mixture was then transferred to Whatman P81 cation exchange filters and rinsed with the solution described above. Incorporated 33P radioactivity was determined by liquid scintillation spectrometry.
The phosphorylated GS-1 peptide had the following sequence: […]
Compound `O=C(CN1c2nc(-c3ccncc3)cc(=O)n2CCC1C(F)(F)F)c1ccccc1` (single isomer, unassigned; (-)) [compound 6, (−)-9-(2-Oxo-2-phenyl-ethyl)-2-(4-pyridinyl)-8-(trifluoromethyl)-6,7,8,9-tetrahydro-4H-pyrimido[1,2-a]pyrimidin-4-one hydrochloride (1:1).] returned an IC50 of 3 nM.

System in another data set: not given
Assay: not given
Conditions: not given
In turn, `O=C(CN1c2nc(-c3ccncc3)c(F)c(=O)n2CCC1C(F)(F)F)c1ccccc1` (racemic) [compound 10, 3-Fluoro-9-(2-oxo-2-phenylethyl)-2-pyridin-4-yl-8-(trifluoromethyl)-6,7,8,9-tetrahydro-4H-pyrimido[1,2-a]pyrimidin-4-one] had a melting point of 241 to 242 °C.

For the compound `O=c1cc(-c2ccncn2)nc2n1CCC(C(F)(F)F)N2Cc1ccccc1` (racemic) [compound 11, 9-(Phenylmethyl)-2-pyrimidin-4-yl-8-(trifluoromethyl)-6,7,8,9-tetrahydro-4H-pyrimido[1,2-a]pyrimidin-4-one], the melting point is 177 to 179 °C.

Regarding `O=c1cc(-c2ccncn2)nc2n1CCC(C(F)(F)F)N2CCc1ccccc1` (racemic) [compound 12, 9-(2-Phenylethyl)-2-pyrimidin-4-yl-8-(trifluoromethyl)-6,7,8,9-tetrahydro-4H-pyrimido[1,2-a]pyrimidin-4-one], the melting point lay within 147 to 149 °C.

With `O=C(CN1c2nc(-c3ccncn3)cc(=O)n2CCC1C(F)(F)F)c1cccc(Br)c1` (racemic) [compound 13, 9-[2-(3-Bromophenyl)-2-oxoethyl]-2-pyrimidin-4-yl-8-(trifluoromethyl)-6,7,8,9-tetrahydro-4H-pyrimido[1,2-a]pyrimidin-4-one], the melting point was in the range of 236 to 238 °C.

As for `O=C(CN1c2nc(-c3ccncn3)cc(=O)n2CCC1C(F)(F)F)c1cccc(F)c1` (racemic) [compound 14, 9-[2-(3-Fluorophenyl)-2-oxoethyl]-2-pyrimidin-4-yl-8-(trifluoromethyl)-6,7,8,9-tetrahydro-4H-pyrimido[1,2-a]pyrimidin-4-one], the melting point lay within 245 to 247 °C.

The compound `Cc1ccc(C(=O)CN2c3nc(-c4ccncn4)cc(=O)n3CCC2C(F)(F)F)cc1` (racemic) [compound 15, 9-[2-(4-Methylphenyl)-2-oxoethyl]-2-pyrimidin-4-yl-8-(trifluoromethyl)-6,7,8,9-tetrahydro-4H-pyrimido[1,2-a]pyrimidin-4-one] registered a melting point of 239 to 241 °C.

Compound `O=C(CN1c2nc(-c3ccncn3)cc(=O)n2CCC1C(F)(F)F)c1ccc(F)cc1` (racemic) [compound 16, 9-[2-(4-Fluorophenyl)-2-oxoethyl]-2-pyrimidin-4-yl-8-(trifluoromethyl)-6,7,8,9-tetrahydro-4H-pyrimido[1,2-a]pyrimidin-4-one] came in with a melting point of 253 to 255 °C.

For `N#Cc1ccc(C(=O)CN2c3nc(-c4ccncn4)cc(=O)n3CCC2C(F)(F)F)cc1` (racemic) [compound 17, 9-[2-(4-Cyanophenyl)-2-oxoethyl]-2-pyrimidin-4-yl-8-(trifluoromethyl)-6,7,8,9-tetrahydro-4H-pyrimido[1,2-a]pyrimidin-4-one], the melting point fell in the range of 201 to 203 °C.

As to `O=C(CN1c2nc(-c3ccncn3)cc(=O)n2CCC1C(F)(F)F)c1ccc(-c2ccccc2)cc1` (racemic) [compound 18, 9-(2-biphenyl-4-yl-2-oxoethyl)-2-pyrimidin-4-yl-8-(trifluoromethyl)-6,7,8,9-tetrahydro-4H-pyrimido[1,2-a]pyrimidin-4-one], the melting point fell in the range of 231 to 233 °C.

For orientation: IC50 means the midpoint of a concentration-inhibition curve. Low readings indicate greater potency, high ones weaker potency. By melting point is commonly meant the temperature, or range, at which the solid turns liquid.
